From publication PMC6883931 (Frontiers in Molecular Neuroscience, 2019)
Several values for one entry are separate records, joined by “and”; a condition that tells them apart may be missing. Equal values may be shown once. Read-outs that look alike come from different tables or passages of the source.

Legend:
GlyR = test system: GlyR; parameters: method as in Breitinger et al., 2016; details: ref Breitinger et al., 2016, cited from earlier work; for EC50: read-out: EC50 for augmentation of glycine-mediated responses; for on-rate of current enhancement: saturating concentrations
[1] = target: T1, recombinant α3L GlyRs expressed in HEK293 cells (Homo sapiens, UniProt O75311); test: Whole-cell patch-clamp recordings of GlyR-transfected HEK293 cells; format: cell-based; details: for EC50 / IC50: n = 7 cells; for EC50: mean ± SEM, read-out: EC50 of glycine-induced currents; for IC50: IC50 of strychnine inhibition; for IC50 / Ki: 60 μM glycine; for Ki: Ki of strychnine (Cheng-Prusoff)
T1 construct: expressed in transfected cells; host or cells: HEK293
Description: Current responses from GlyR-transfected HEK293 cells were measured at room temperature (21–23°C) at a holding potential of −50 mV using a HEKA EPC10 amplifier (HEKA Electronics, Lambrecht, Germany) controlled by Pulse software (HEKA Electronics). Recording pipettes were pulled from borosilicate glass (World Precision Instruments, Berlin, Germany) using a Sutter P-97 horizontal puller (Sutter, Novato, CA, USA). Solutions were applied using an Octaflow system (NPI electronics, Tamm, Germany). The external buffer consisted of 135 mM NaCl, 5.5 mM KCl, 2 mM CaCl2, 1.0 mM MgCl2, and 10 mM Hepes (pH adjusted to 7.4 with NaOH); the internal buffer was 140 mM CsCl, 1.0 mM CaCl2, 2.0 mM MgCl2, 5.0 mM EGTA, and 10 mM Hepes (pH adjusted to 7.2 with CsOH). […] Dose-response data were fitted to the Hill equation (see Supplementary Material) to determine EC50 and IC50.
Ki was calculated using the Cheng-Prusoff correction, significance was tested using one-way ANOVA with p < 0.05 considered significant. […] All data are means ± SEM; significance levels (relative to control) are indicated: *p ≤ 0.5; **p ≤ 0.01; ns, not significant.
Cell Culture and Transfection – HEK293 cells were grown in 10 cm tissue culture Petri dishes in Eagle minimal essential medium (EMEM) (Lonza, Basel, Switzerland) supplemented with 10% FBS (Invitrogen, Karlsruhe, Germany) and penicillin/streptomycin (Sigma-Aldrich, Munich, Germany) at 5% CO2 and 37 °C in a water saturated atmosphere. For electrophysiological experiments, cells were plated on acetone treated glass coverslips in 24 well plates. Transfection was performed 1 day after cell passage using polyethyleneimine (PEI) (Sigma-Aldrich, Munich, Germany): 0.75 µg of receptor DNA and 1.0 µg of green fluorescent protein DNA were mixed in 50 µl EMEM; in a second Eppendorf tube, 3.5 µl PEI was added to 50 µl EMEM, mixed and combined with the DNA solution. After 20 min incubation at room temperature, the transfection solution was added dropwise to the cells. Measurements were performed 1-3 days after transfection.
Electrophysiological Recordings and Data Analysis – Current responses from GlyR-transfected HEK293 cells were measured at room temperature (21-23°C) at a holding potential of -50 mV. Whole-cell recordings were performed using a HEKA EPC10 amplifier (HEKA Electronics, Lambrecht, Germany) controlled by Pulse software (HEKA Electronics). Recording pipettes were pulled from borosilicate glass (World Precision Instruments, Berlin, Germany) using a Sutter P-97 horizontal puller (Sutter, Novato, CA).

Male Swiss Webster mice [2] = test: Tactile sensitivity (von Frey) test, paw withdrawal threshold; format: in vivo; details: for PWT ratio: individual mice and avg
Description: (§1) See Supplementary Material S1 for experimental details. On the day of the experiment, mice were weighed and then fasted for 5–6 h to reduce variability in initial blood glucose levels (BGL). Mice had been accustomed to the test apparatus for 2–3 h on two separate days before experiments. Two hours before testing, mice were acclimatized to the measuring apparatus. For hotplate tests, mice were accustomed to the testing condition by placing them one by one on a switched off hotplate at room temperature for the set cut off time of 30 s. One hour before testing, baseline measurements for touch sensitivity were recorded. For both experiments, mice were then injected according to protocol. Blood glucose level was measured before and after injections (Figure 3A).
Mice were divided into four experimental groups (see main text). The investigator performing the measurements was blinded to treatment groups and to the blood glucose readings. All mice were measured for their Paw withdrawal threshold (PWT) using von Frey filaments on at least one occasion before the testing day to reduce the stress or surprise from the experiment. We used the up-and-down method to determine pain withdrawal thresholds (PWT; Bradman et al., [2015]) with 8 mN as the starting value (see Supplementary Material for details). Baseline PWT values for each mouse were determined before treatment. […] Measurements were limited to the time window of 5 min after the second injection (strychnine or vehicle) due to the fast elimination kinetics of low doses of strychnine.
• (i) Baseline PWT determination for each mouse, 30 min prior to the experiment; • (ii) at time t = 0, mice were injected with glucose (2 g/kg) or vehicle • (iii) at t = 30 min, mice were injected with strychnine (0.2 or 0.5 mg/kg) or vehicle; • (iv) at t = 35 min pain-related behavior was assessed.
Von Frey Experiment – The investigator performing the measurements was blinded to treatment groups and to the blood glucose readings. All mice were measured for their paw withdrawal threshold using the Von Frey filaments on at least one occasion before the testing day. That was done to reduce the stress or surprise that might result from exposure to new conditions on the day of the experiment. A baseline reading for each mouse is also taken before the test with the consideration to leave at least one-day gab between baseline and experiment measurement to minimize any effect of repetitive measurement. […]
We used the up-and-down method to determine pain withdrawal thresholds (PWT) (Bradman et al., 2015). To assess the starting force, baseline 50% PWT was measured in five naïve mice (20-35 g) by application of von Frey hairs in an ascending order of their applied force. […] Baseline PWT values for each mouse were determined before treatment. […]

Male Swiss Webster mice [3] = test: Hotplate test (55°C), latency until pain-related reaction; format: in vivo
Description: as §1
The investigator performing the measurements was blinded to treatment groups and to the blood glucose readings.

[4] = test system: recombinant α1, α1-β, and α3 GlyRs; parameters: method as in Breitinger et al., 2015; Breitinger and Breitinger, 2016; details: HEK293 cells, ref Breitinger et al., 2015, 2016; cited from earlier work
mice = details: cited from earlier work; for LD50: mice, Patocka, 2009

T1 sequence (O75311 34-464): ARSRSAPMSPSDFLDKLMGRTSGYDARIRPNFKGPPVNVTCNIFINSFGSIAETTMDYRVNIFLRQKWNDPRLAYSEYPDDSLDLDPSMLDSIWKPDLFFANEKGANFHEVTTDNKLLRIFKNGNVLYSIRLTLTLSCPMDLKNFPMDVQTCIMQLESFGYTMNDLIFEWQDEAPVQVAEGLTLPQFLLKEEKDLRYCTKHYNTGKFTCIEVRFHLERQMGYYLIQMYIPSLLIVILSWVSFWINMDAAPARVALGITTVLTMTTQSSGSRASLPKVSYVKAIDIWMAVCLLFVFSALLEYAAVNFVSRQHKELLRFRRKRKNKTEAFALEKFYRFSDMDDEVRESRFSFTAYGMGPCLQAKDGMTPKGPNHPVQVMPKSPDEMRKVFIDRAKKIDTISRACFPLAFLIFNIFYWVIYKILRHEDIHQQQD

O=C(CO)[C@@H](O)[C@H](O)[C@H](O)CO [Fructose, fructose]
EC50 (GlyR): 6000 to 7000 µM
on-rate of current enhancement (GlyR): < 0.5 h

NCC(=O)O [Glycine, glycine]
EC50 ([1]; after overnight preincubation with 50 mM glucose): 49.9 ± 5.3 µM
EC50 ([1]; control, no glucose preincubation (5.5 mM glucose in medium)): 106 ± 16 µM

OC[C@H]1OC(O)[C@H](O)[C@@H](O)[C@@H]1O (stereo partly shown) [Glucose, glucose]
time after which effects on pain-related behavior were fully developed (Male Swiss Webster mice [2]; glucose 2 g/kg IP): 20 min
average normalized latency time (Male Swiss Webster mice [3]; glucose 2 g/kg IP, no strychnine, normalized to baseline, mean ± SEM): 1.79 ± 0.18
normalized response time (Male Swiss Webster mice [3]; glucose 2 g/kg pretreatment followed by 0.2 mg/kg strychnine): 1.72 ± 0.44
normalized response time (Male Swiss Webster mice [3]; glucose 2 g/kg prior to 0.5 mg/kg strychnine challenge): 0.74 ± 0.15
reduction of EC50 value [4]: 2–4 fold
EC50 (GlyR): 6000 to 7000 µM
on-rate of current enhancement (GlyR): < 0.5 h

OC[C@H]1O[C@@](CO)(O[C@H]2O[C@H](CO)[C@@H](O)[C@H](O)[C@H]2O)[C@@H](O)[C@@H]1O [Sucrose, sucrose]
on-rate of current enhancement (GlyR): ~ 1.5 h

OC[C@H]1O[C@@H](O[C@H]2[C@H](O)[C@@H](O)C(O)O[C@@H]2CO)[C@H](O)[C@@H](O)[C@H]1O (mixture of isomers) [Lactose, lactose]
on-rate of current enhancement (GlyR): ~ 1.5 h

O=C1C[C@@H]2OCC=C3CN4CC[C@]56c7ccccc7N1[C@H]5[C@H]2[C@H]3C[C@H]46 [Strychnine, strychnine]
IC50 ([1]; absence of glucose): 0.0307 ± 0.0028 µM
IC50 ([1]; cells preincubated with 50 mM glucose): 0.0462 ± 0.0058 µM
Ki ([1]; cells pretreated with 50 mM glucose): 0.0198 ± 0.0016 µM
Ki ([1]; control cells): 0.0188 ± 0.0014 µM
PWT ratio (Male Swiss Webster mice [2]; no glucose – Strychnine 0.2 mg/kg): 0.98 and 0.73 and 0.48 and 0.62 and 0.87 and 0.24 and 0.76 and 0.15
PWT ratio (Male Swiss Webster mice [2]; no glucose – Strychnine 0.5 mg/kg): 0.17 and 1.46 and 0.19 and 0.30 and 0.14
time after which notable effects on pain sensitivity were gone (Male Swiss Webster mice [2]; sub-lethal amounts of strychnine, IP): > 5 min
normalized time to response (Male Swiss Webster mice [3]; strychnine 0.2 mg/kg IP, no glucose): 0.63 ± 0.10
normalized response time (Male Swiss Webster mice [3]; strychnine 0.5 mg/kg IP, no glucose): 0.30 ± 0.07
lethality (mice; 2 mg/kg IP, Swiss Webster mice, ref Maher et al., 2014): 85%
LD50 (mice; intraperitoneal (IP) injection, ref Prasad et al., 1981): 0.98 mg/kg
LD50 (mice; oral administration, ref Setnikar et al., 1960): 2 mg/kg
